Source: patent US8901118B2, “Compounds and methods for kinase modulation, and indications therefor” (Plexxikon Inc., priority 2010, dated 2014)
pIC50: −log10 of the molar value.

Key:
BCR-NTRK2 BaF3 cells = molecular target: T1, BCR-NTRK2 BaF3 cells (Homo sapiens, UniProt Q16620); experiment: BaF3 BCR-NTRK2 cell proliferation assay (ATPlite); assay type: cell-based; details: read-out: Inhibition of Cell Proliferation IC50, BCR/BaF3 TrkB
T1 construct: fused on or other part: P11274 (Breakpoint cluster region protein)
T1 sequence (Q16620 538-807): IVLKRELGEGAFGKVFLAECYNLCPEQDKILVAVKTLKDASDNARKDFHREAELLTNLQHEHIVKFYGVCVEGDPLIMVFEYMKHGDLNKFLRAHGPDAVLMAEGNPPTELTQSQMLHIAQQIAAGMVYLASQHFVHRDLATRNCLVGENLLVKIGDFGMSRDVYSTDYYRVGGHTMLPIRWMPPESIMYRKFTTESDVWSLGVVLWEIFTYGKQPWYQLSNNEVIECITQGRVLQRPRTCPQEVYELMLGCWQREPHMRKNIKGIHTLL
Procedure: Compounds are assessed in a variety of cell based assays. For example BaF3 cells engineered with any of BCR-FMS, BCR-KIT, BCR-FLT3, BCR-NTRK1, BCR-NTRK2, and BCR-NTRK3, are used in cell proliferation assays to assess inhibitory activity of Fms, Kit, Flt-3, TrkA, TrkB, and TrkC, respectively. An MV-4-11 (leukemia) cell proliferation assay is used to assess inhibitory activity in Flt-3, and SKNSH (human neuroblastoma) cell proliferation assay is used to assess efficacy of Fms/Trk inhibitors. Additional cells may be assayed similarly to assess the efficacy of Fms/Trk inhibitors, such as MiaPaCa (human pancreatic cancer) and Capan-1 (human pancreatic carcinoma) cells. Reagent and assay conditions are as follows: • BaF3 cells: • Maintained in RPMI containing 10% FBS, 1% PenStrep, 1% NEAA, and 1% L-Glutamine, supplemented with 1 mg/mL G418 and 5% WEHI-CM (or recombinant murine IL-3). • Confluent cells are split 1:50 to 1:100 every 3-4 days. • MV-4-11 cells: • Maintained in Iscove's Modified Dulbecco's Medium containing 10% FBS. • Confluent cells are split 1:4 every 3-4 days. • SKNSH cells: RPMI containing 10% FBS. On day 1, cells are counted, then centrifuged in a conical tube for 5 minutes at 1000 rpm. The supernatant is removed and cells are re-suspended as follows: • BaF3: resuspend in growth media +1 mg/mL G418 (without WEHFIL-3) to 2×10^5 cells/mL. • MV-4-11: resuspend in growth media to 5×10^5 cells/mL. • SKNSH: resuspend in growth media to 2×10^4 cells/mL. The cells are plated (50 μL, 150 μL for SKNSH cells) in each well of a 96-well dish (Corning 3610) and incubated at 37° C. in 5% CO2 overnight, cells plated to a final concentration of cells as follows: • BaF3: 10,000 cells per well. • MV-4-11: 25,000 cells per well. • SKNSH: 3,000 cells per well. On day 2, compound at a maximum concentration of 5 mM is serially diluted 1:3 for a total of 8 point titration with DMSO as a control. A 1 μL aliquot of each dilution point is added to 249 μL growth media and 50 μL is added to a well containing cells, providing 10 μM compound for the maximum concentration point. The cells are incubated for 3 days at 37° C. in 5% CO2. For SKNSH cells, a 0.75 μL aliquot of appropriate dilution in DMSO is added to 150 μL of cells. On day 5, ATPlite 1 step Luminescence Assay System (Perkin Elmer #6016739) is brought to room temperature along with the cell cultures. ATPlite is added to each well as follows: • BaF3: 25 μL per well. • MV-4-11: 40 μL per well. • SKNSH: 20 μL per well. The cells are incubated at room temperature for 10 minutes, then luminescence is read on Safire reader. The measured luminescence correlates directly with cell number, such that the reading as a function of compound concentration is used to determine the IC50 value.
It is understood that the results of these assays may vary as assay conditions are varied. Inhibition levels determined under the conditions described herein represent a relative activity for the compounds tested under the specific conditions employed. The cell based assays are likely to show variability due to the complexity of the system and the sensitivity thereof to any changes in the assay conditions. […] Results for compounds that are tested and show substantially no inhibition below the highest tested concentration are represented as “-” in the tables below. In some instances, the compounds were not tested in all of the assays, or assay results were not valid, as indicated by NA in the tables below.

CYP1A2 = molecular target: T2, CYP1A2 (Homo sapiens, UniProt P05177); experiment: CYP1A2 inhibition (fluorescent substrate CEC); assay type: in vitro ADME; details: read-out: Cyp IC50 1A2
T2 sequence (P05177 1-516): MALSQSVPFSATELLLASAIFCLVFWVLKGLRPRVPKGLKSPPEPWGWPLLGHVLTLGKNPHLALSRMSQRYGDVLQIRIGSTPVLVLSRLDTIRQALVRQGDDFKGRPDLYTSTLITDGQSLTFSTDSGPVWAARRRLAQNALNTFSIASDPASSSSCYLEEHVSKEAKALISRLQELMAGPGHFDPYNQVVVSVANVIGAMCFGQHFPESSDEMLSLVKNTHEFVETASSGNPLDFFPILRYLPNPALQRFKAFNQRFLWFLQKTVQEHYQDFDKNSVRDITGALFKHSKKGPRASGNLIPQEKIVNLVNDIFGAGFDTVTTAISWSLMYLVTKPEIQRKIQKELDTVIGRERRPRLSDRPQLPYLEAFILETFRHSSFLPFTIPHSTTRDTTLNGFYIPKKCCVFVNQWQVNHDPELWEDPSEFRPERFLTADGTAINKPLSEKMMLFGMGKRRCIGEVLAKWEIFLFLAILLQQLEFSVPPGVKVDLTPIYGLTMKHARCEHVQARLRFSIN
Procedure: (§1) CYP (Cytochrome P450) enzymes are the major drug metabolizing enzymes present in the liver. The inhibition of CYP enzyme activity (IC50) for each of CYP1A2, CYP2C19, CYP2C9, CYP2D6, CYP3A4(BFC) and CYP3A4(BQ) is determined for compounds, where inhibition of metabolism of a known substrate leads to a decrease in the fluorescence of the metabolized product. The fluorescence of the product is monitored as a function of compound concentration. Compounds are dissolved in DMSO to a concentration of 100 mM. These are diluted 1 μL into 82 μL of acetonitrile. An 11 μL aliquot of this solution is then added to 204 μL of cofactor mix (1.3% NADPH Regeneration system Solution A, 1.04% NADPH Regeneration system Solution B from BD Biosciences, 5% acetonitrile and 0.05% DMSO). These are then serially diluted 1:1 (160 μL to 160 μL co-factor mix) for a total of 10 points. A 10 μL aliquot of this final mixture is dispensed into 384 well assay plates and incubated for 10 minutes at 37° C. […] Assay plates are incubated at 37° C. (CYP1A2-15 min; CYP2C9-45 min; CYP2C19, 2D6 and 3A4-30 min) and read in a Tecan Safire 2 plate reader (CYP1A2, 2C19 and 3A4 409 ex/460 em; CYP2C9 and 2D6 409 ex/530 em). The signal versus compound concentration is used to determine the IC50. The enzymes and substrates for this assay are obtained from BD Biosciences.

CYP3A4(BQ) = CYP3A4(BQ) (Homo sapiens, UniProt P08684); experiment: CYP3A4(BQ) inhibition; assay type: in vitro ADME; details: CYP3A4, substrate BQ; read-out: Cyp IC50 3A4(BQ)
Sequence of CYP3A4(BQ) (P08684 whole entry): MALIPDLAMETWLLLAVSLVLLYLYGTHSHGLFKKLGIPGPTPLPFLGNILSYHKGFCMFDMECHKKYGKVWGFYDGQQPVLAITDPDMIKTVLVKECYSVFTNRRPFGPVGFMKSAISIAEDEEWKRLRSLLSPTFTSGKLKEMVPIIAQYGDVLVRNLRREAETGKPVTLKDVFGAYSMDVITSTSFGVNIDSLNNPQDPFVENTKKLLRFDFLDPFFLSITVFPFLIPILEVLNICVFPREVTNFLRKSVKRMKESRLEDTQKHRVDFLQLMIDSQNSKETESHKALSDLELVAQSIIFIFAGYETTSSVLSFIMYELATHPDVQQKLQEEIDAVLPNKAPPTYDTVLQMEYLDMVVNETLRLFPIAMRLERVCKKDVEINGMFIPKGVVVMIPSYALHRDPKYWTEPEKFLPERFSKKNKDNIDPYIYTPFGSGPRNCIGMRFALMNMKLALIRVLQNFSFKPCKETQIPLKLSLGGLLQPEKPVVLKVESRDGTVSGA
Procedure: as §1

Structure (SMILES)	pIC50 (BCR-NTRK2 BaF3 cells)	pIC50 (CYP1A2)	pIC50 (CYP3A4(BQ))
CNc1ncnc2[nH]cc(C(=O)c3ccc(NC4CCC(F)(F)CC4)nc3F)c12 [Compound P-4063, [6-[(4,4-difluorocyclohexyl)amino]-2-fluoro-3-pyridyl]-[4-(methylamino)-7H-pyrrolo[2,3-d]pyrimidin-5-yl]methanone]	> 7.00	< 5.00	< 5.00
CNc1ncnc2[nH]cc(C(=O)c3ccc(Nc4ccc(OC)nc4)nc3F)c12 [Compound P-4083, [2-fluoro-6-[(6-methoxy-3-pyridyl)amino]-3-pyridyl]-[4-(methylamino)-7H-pyrrolo[2,3-d]pyrimidin-5-yl]methanone]	> 8.00	< 5.00	< 5.00
O=C(c1ccc(NC2CCC(F)(F)CC2)nc1F)c1c[nH]c2ncnc(NCC(F)(F)F)c12 [Compound P-4061, [6-[(4,4-difluorocyclohexyl)amino]-2-fluoro-3-pyridyl]-[4-(2,2,2-trifluoroethylamino)-7H-pyrrolo[2,3-d]pyrimidin-5-yl]methanone]	> 8.00	< 5.00	< 5.00
CCc1ccc(Nc2ccc(C(=O)c3c[nH]c4ncnc(N)c34)c(F)n2)cn1 [Compound P-4065, (4-amino-7H-pyrrolo[2,3-d]pyrimidin-5-yl)-[6-[(6-ethyl-3-pyridyl)amino]-2-fluoro-3-pyridyl]methanone]	> 8.00	< 5.00	< 5.00
CCC(C)Nc1ncnc2[nH]cc(C(=O)c3ccc(Nc4ccc(OC)nc4)nc3F)c12 (stereo not drawn) [Compound P-4078, [2-fluoro-6-[(6-methoxy-3-pyridyl)amino]-3-pyridyl]-[4-(sec-butylamino)-7H-pyrrolo[2,3-d]pyrimidin-5-yl]methanone]	> 8.00	5.00 to 5.30	< 5.00
COc1ccc(Nc2ccc(C(=O)c3c[nH]c4ncnc(NC5CCCC5)c34)c(F)n2)cn1 [Compound P-4075, [4-(cyclopentylamino)-7H-pyrrolo[2,3-d]pyrimidin-5-yl]-[2-fluoro-6-[(6-methoxy-3-pyridyl)amino]-3-pyridyl]methanone]	> 8.00	< 5.00	< 5.00
COCCCNc1ncnc2[nH]cc(C(=O)c3ccc(Nc4ccc(OC)nc4)nc3F)c12 [Compound P-4079, [2-fluoro-6-[(6-methoxy-3-pyridyl)amino]-3-pyridyl]-[4-(3-methoxypropylamino)-7H-pyrrolo[2,3-d]pyrimidin-5-yl]methanone]	> 8.00	< 5.00	< 5.00
COc1ccc(Nc2ccc(C(=O)c3c[nH]c4ncnc(NC(C)(C)C)c34)c(F)n2)cn1 [Compound P-4055, [4-(tert-butylamino)-7H-pyrrolo[2,3-d]pyrimidin-5-yl]-[2-fluoro-6-[(6-methoxy-3-pyridyl)amino]-3-pyridyl]methanone]	> 8.00	> 5.00	< 5.00
CCNc1ncnc2[nH]cc(C(=O)c3ccc(Nc4ccc(C5CC5)nc4)nc3F)c12 [Compound P-4060, [6-[(6-cyclopropyl-3-pyridyl)amino]-2-fluoro-3-pyridyl]-[4-(ethylamino)-7H-pyrrolo[2,3-d]pyrimidin-5-yl]methanone]	> 8.00	< 5.00	< 5.00
COc1ccc(Nc2ccc(C(=O)c3c[nH]c4ncnc(NC5CCCCC5)c34)c(F)n2)cn1 [Compound P-4082, [4-(cyclohexylamino)-7H-pyrrolo[2,3-d]pyrimidin-5-yl]-[2-fluoro-6-[(6-methoxy-3-pyridyl)amino]-3-pyridyl]methanone]	> 8.00	< 5.00	5.00 to 5.30

The next lines start with the values.

pIC50 (BCR-NTRK2 BaF3 cells)	pIC50 (CYP1A2)	pIC50 (CYP3A4(BQ))	Structure (SMILES)
> 7.00	< 5.00	< 5.00	COc1cncc(Nc2ccc(C(=O)c3c[nH]c4ncnc(NC5CCCCC5)c34)c(F)n2)c1 [Compound P-4104, [4-(cyclohexylamino)-7H-pyrrolo[2,3-d]pyrimidin-5-yl]-[2-fluoro-6-[(5-methoxy-3-pyridyl)amino]-3-pyridyl]methanone]
> 7.00	< 5.00	> 5.30	Fc1cc(Cc2c[nH]c3ncnc(NC4CC4)c23)cnc1NC1CCC(F)(F)CC1 [Compound P-4127, N-cyclopropyl-5-[[6-[(4,4-difluorocyclohexyl)amino]-5-fluoro-3-pyridyl]methyl]-7H-pyrrolo[2,3-d]pyrimidin-4-amine]
< 6.00	> 5.30	< 5.00	COc1cncc(Nc2ccc(C(=O)c3c[nH]c4ncnc(NCC(F)(F)F)c34)c(F)n2)c1 [Compound P-4103, [2-fluoro-6-[(5-methoxy-3-pyridyl)amino]-3-pyridyl]-[4-(2,2,2-trifluoroethylamino)-7H-pyrrolo[2,3-d]pyrimidin-5-yl]methanone]
> 7.00	> 5.30	< 5.00	Cc1ccc(Nc2ccc(C(=O)c3c[nH]c4ncnc(NCC(F)(F)F)c34)c(F)n2)cn1 [Compound P-4112, [2-fluoro-6-[(6-methyl-3-pyridyl)amino]-3-pyridyl]-[4-(2,2,2-trifluoroethylamino)-7H-pyrrolo[2,3-d]pyrimidin-5-yl]methanone]
> 8.00	5.00 to 5.30	< 5.00	CCc1ccc(Nc2ccc(C(=O)c3c[nH]c4ncnc(NC(C)C)c34)c(F)n2)cn1 [Compound P-4117, [6-[(6-ethyl-3-pyridyl)amino]-2-fluoro-3-pyridyl]-[4-(isopropylamino)-7H-pyrrolo[2,3-d]pyrimidin-5-yl]methanone]
